# From ChEMBL document CHEMBL3885881, “DrugMatrix”
# Species on record: Rattus norvegicus
# Experiment: DrugMatrix - Regimen: Daily Repeat
# Type: toxicity, organism-based, Sprague-Dawley
# Parameters: regimen Daily Repeat, gender Male, age 6-8 weeks
# Settings: in vivo, po, route oral GAVAGE, vehicle .5 % CMC; for ABSOLUTE BASOPHIL / ABSOLUTE EOSINOPHIL / ABSOLUTE LYMPHOCYTE / ABSOLUTE MONOCYTE / ABSOLUTE SEGMENTED NEUTROPHIL / BASOPHIL / EOSINOPHIL / ERYTHROCYTE COUNT / HEMATOCRIT / HEMOGLOBIN / LEUKOCYTE COUNT / LYMPHOCYTE / MEAN CORPUSCULAR HEMOGLOBIN / MEAN CORPUSCULAR HEMOGLOBIN CONCENTRATION / MEAN CORPUSCULAR VOLUME / MONOCYTE / NEUTROPHIL / NUCLEATED RED BLOOD CELLS / PLATELET COUNT: tissue Blood; for ALANINE AMINOTRANSFERASE / ALBUMIN / ALKALINE PHOSPHATASE / ASPARTATE AMINOTRANSFERASE / BLOOD UREA NITROGEN / CARBON DIOXIDE / CHLORIDE / CHOLESTEROL / CREATINE PHOSPHOKINASE / CREATININE / GLUCOSE / LACTATE DEHYDROGENASE / LIPASE / PHOSPHORUS / POTASSIUM / SODIUM / TOTAL BILIRUBIN / TOTAL PROTEIN / URIC ACID: tissue Plasma
# [1] = 0.0001 mg/kg, 72 h, dose level Low, time 3 day
# [2] = 0.0001 mg/kg, 120 h, dose level Low, time 5 day
# [3] = […], 72 h, dose 0.043 mg/Kg, dose level High, time 3 day
# [4] = […], 120 h, dose 0.043 mg/Kg, dose level High, time 5 day
smiles,measurement,setting,value
C=C1/C(=C\C=C2/CCC[C@]3(C)[C@@H]([C@H](C)CCCC(C)C)CC[C@@H]23)C[C@@H](O)C[C@@H]1O [ALFACALCIDOL],ABSOLUTE BASOPHIL,[1],0 CELLS/uL
same,ABSOLUTE EOSINOPHIL,[1],140 CELLS/uL
same,ABSOLUTE LYMPHOCYTE,[1],12178.67 CELLS/uL
same,ABSOLUTE MONOCYTE,[1],352 CELLS/uL
same,ABSOLUTE SEGMENTED NEUTROPHIL,[1],1262.67 CELLS/uL
same,BASOPHIL,[1],0%
same,EOSINOPHIL,[1],1%
same,ERYTHROCYTE COUNT,[1],6.05 x10E6/uL
same,HEMATOCRIT,[1],38.07%
same,HEMOGLOBIN,[1],14.23 G/DL
same,LEUKOCYTE COUNT,[1],13.93 x10E3/uL
same,LYMPHOCYTE,[1],87.33%
same,MEAN CORPUSCULAR HEMOGLOBIN,[1],23.6 pg
same,MEAN CORPUSCULAR HEMOGLOBIN CONCENTRATION,[1],37.4 G/DL
same,MEAN CORPUSCULAR VOLUME,[1],63.03 fL
same,MONOCYTE,[1],2.67%
same,NEUTROPHIL,[1],9%
same,NUCLEATED RED BLOOD CELLS,[1],0.33 /100WBC
same,PLATELET COUNT,[1],1202.33 x10E3/uL
same,ALANINE AMINOTRANSFERASE,[1],48.33 u/L
same,ALBUMIN,[1],4.17 G/DL
same,ALKALINE PHOSPHATASE,[1],299.33 u/L
same,ASPARTATE AMINOTRANSFERASE,[1],81 u/L
same,BLOOD UREA NITROGEN,[1],17 mg/dL
same,CARBON DIOXIDE,[1],24.67 mmol/L
same,CHLORIDE,[1],103.5 MEQ/L
same,CHOLESTEROL,[1],65 mg/dL
same,CREATINE PHOSPHOKINASE,[1],332 u/L
same,CREATININE,[1],0.2 mg/dL
same,GLUCOSE,[1],178.67 mg/dL
same,LACTATE DEHYDROGENASE,[1],142.33 u/L
same,LIPASE,[1],9.33 u/L
same,PHOSPHORUS,[1],12.17 mg/dL
same,POTASSIUM,[1],6.03 MEQ/L
same,SODIUM,[1],146.55 MEQ/L
same,TOTAL BILIRUBIN,[1],0.23 mg/dL
same,TOTAL PROTEIN,[1],5.83 G/DL
same,URIC ACID,[1],1.77 mg/dL
same,ABSOLUTE BASOPHIL,[2],0 CELLS/uL
same,ABSOLUTE EOSINOPHIL,[2],164 CELLS/uL
same,ABSOLUTE LYMPHOCYTE,[2],10288.67 CELLS/uL
same,ABSOLUTE MONOCYTE,[2],193 CELLS/uL
same,ABSOLUTE SEGMENTED NEUTROPHIL,[2],1121 CELLS/uL
same,BASOPHIL,[2],0%
same,EOSINOPHIL,[2],1.33%
same,ERYTHROCYTE COUNT,[2],5.95 x10E6/uL
same,HEMATOCRIT,[2],36.97%
same,HEMOGLOBIN,[2],13.63 G/DL
same,LEUKOCYTE COUNT,[2],11.77 x10E3/uL
same,LYMPHOCYTE,[2],87.33%
same,MEAN CORPUSCULAR HEMOGLOBIN,[2],22.9 pg
same,MEAN CORPUSCULAR HEMOGLOBIN CONCENTRATION,[2],36.9 G/DL
same,MEAN CORPUSCULAR VOLUME,[2],62.07 fL
same,MONOCYTE,[2],1.67%
same,NEUTROPHIL,[2],9.67%
same,NUCLEATED RED BLOOD CELLS,[2],0 /100WBC
same,PLATELET COUNT,[2],1179 x10E3/uL
same,ALANINE AMINOTRANSFERASE,[2],40.33 u/L
same,ALBUMIN,[2],4.23 G/DL
same,ALKALINE PHOSPHATASE,[2],369.33 u/L
same,ASPARTATE AMINOTRANSFERASE,[2],94.33 u/L
same,BLOOD UREA NITROGEN,[2],21 mg/dL
same,CARBON DIOXIDE,[2],26.67 mmol/L
same,CHLORIDE,[2],105 MEQ/L
same,CHOLESTEROL,[2],57.33 mg/dL
same,CREATINE PHOSPHOKINASE,[2],399 u/L
same,CREATININE,[2],0.21 mg/dL
same,GLUCOSE,[2],158.33 mg/dL
same,LACTATE DEHYDROGENASE,[2],716.33 u/L
same,LIPASE,[2],8.33 u/L
same,PHOSPHORUS,[2],11.8 mg/dL
same,POTASSIUM,[2],5.72 MEQ/L
same,SODIUM,[2],145.1 MEQ/L
same,TOTAL BILIRUBIN,[2],0.13 mg/dL
same,TOTAL PROTEIN,[2],5.9 G/DL
same,URIC ACID,[2],1.3 mg/dL
same,ABSOLUTE BASOPHIL,[3],0 CELLS/uL
same,ABSOLUTE EOSINOPHIL,[3],333 CELLS/uL
same,ABSOLUTE LYMPHOCYTE,[3],10082 CELLS/uL
same,ABSOLUTE MONOCYTE,[3],537.33 CELLS/uL
same,ABSOLUTE SEGMENTED NEUTROPHIL,[3],2481 CELLS/uL
same,BASOPHIL,[3],0%
same,EOSINOPHIL,[3],2.33%
same,ERYTHROCYTE COUNT,[3],6 x10E6/uL
same,HEMATOCRIT,[3],36.53%
same,HEMOGLOBIN,[3],13.9 G/DL
same,LEUKOCYTE COUNT,[3],13.43 x10E3/uL
same,LYMPHOCYTE,[3],74%
same,MEAN CORPUSCULAR HEMOGLOBIN,[3],23.2 pg
same,MEAN CORPUSCULAR HEMOGLOBIN CONCENTRATION,[3],38.07 G/DL
same,MEAN CORPUSCULAR VOLUME,[3],60.97 fL
same,MONOCYTE,[3],4%
same,NEUTROPHIL,[3],19.67%
same,NUCLEATED RED BLOOD CELLS,[3],0.33 /100WBC
same,PLATELET COUNT,[3],1182 x10E3/uL
same,ALANINE AMINOTRANSFERASE,[3],54.33 u/L
same,ALBUMIN,[3],3.93 G/DL
same,ALKALINE PHOSPHATASE,[3],234.67 u/L
same,ASPARTATE AMINOTRANSFERASE,[3],99 u/L
same,BLOOD UREA NITROGEN,[3],27.67 mg/dL
same,CARBON DIOXIDE,[3],26.33 mmol/L
same,CHLORIDE,[3],99.67 MEQ/L
same,CHOLESTEROL,[3],75.33 mg/dL
same,CREATINE PHOSPHOKINASE,[3],379.67 u/L
same,CREATININE,[3],0.33 mg/dL
same,GLUCOSE,[3],174.33 mg/dL
same,LACTATE DEHYDROGENASE,[3],344 u/L
same,LIPASE,[3],8.33 u/L
same,PHOSPHORUS,[3],12.9 mg/dL
same,POTASSIUM,[3],5.6 MEQ/L
same,SODIUM,[3],142.27 MEQ/L
same,TOTAL BILIRUBIN,[3],0.2 mg/dL
same,TOTAL PROTEIN,[3],5.87 G/DL
same,URIC ACID,[3],1.57 mg/dL
same,ABSOLUTE BASOPHIL,[4],0 CELLS/uL
same,ABSOLUTE EOSINOPHIL,[4],110 CELLS/uL
same,ABSOLUTE LYMPHOCYTE,[4],15770.33 CELLS/uL
same,ABSOLUTE MONOCYTE,[4],383.67 CELLS/uL
same,ABSOLUTE SEGMENTED NEUTROPHIL,[4],2702.67 CELLS/uL
same,BASOPHIL,[4],0%
same,EOSINOPHIL,[4],1%
same,ERYTHROCYTE COUNT,[4],6.37 x10E6/uL
same,HEMATOCRIT,[4],38.77%
same,HEMOGLOBIN,[4],14.5 G/DL
same,LEUKOCYTE COUNT,[4],18.97 x10E3/uL
same,LYMPHOCYTE,[4],83.33%
same,MEAN CORPUSCULAR HEMOGLOBIN,[4],22.77 pg
same,MEAN CORPUSCULAR HEMOGLOBIN CONCENTRATION,[4],37.43 G/DL
same,MEAN CORPUSCULAR VOLUME,[4],60.83 fL
same,MONOCYTE,[4],2%
same,NEUTROPHIL,[4],13.67%
same,NUCLEATED RED BLOOD CELLS,[4],0 /100WBC
same,PLATELET COUNT,[4],1065.33 x10E3/uL
same,ALANINE AMINOTRANSFERASE,[4],53.67 u/L
same,ALBUMIN,[4],4.5 G/DL
same,ALKALINE PHOSPHATASE,[4],245.67 u/L
same,ASPARTATE AMINOTRANSFERASE,[4],109.33 u/L
same,BLOOD UREA NITROGEN,[4],18 mg/dL
same,CARBON DIOXIDE,[4],27 mmol/L
same,CHLORIDE,[4],101.67 MEQ/L
same,CHOLESTEROL,[4],74.33 mg/dL
same,CREATINE PHOSPHOKINASE,[4],756 u/L
same,CREATININE,[4],0.12 mg/dL
same,GLUCOSE,[4],155.33 mg/dL
same,LACTATE DEHYDROGENASE,[4],946.67 u/L
same,LIPASE,[4],8.33 u/L
same,PHOSPHORUS,[4],12.47 mg/dL
same,POTASSIUM,[4],4.95 MEQ/L
same,SODIUM,[4],144.83 MEQ/L
same,TOTAL BILIRUBIN,[4],0.1 mg/dL
same,TOTAL PROTEIN,[4],6.33 G/DL
same,URIC ACID,[4],1.5 mg/dL
